The supplement of paper PMC11061612

Assays:
Carboplatin = compound: C1CC(C1)(C(=O)[O-])C(=O)[O-].N.N.[Pt+2] [Carboplatin]; conditions: max 10 µM
Summary of the method: (§1)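 Plates with 1536 wells received cancer cell lines in 7.5 μl of DMEM/F12 or RPMI containing 10% FBS. After 24 hours at 37°C and 5% CO2, cells were dosed for 72 hours with final DMSO typically 0.2%, and viability was read by CellTiter-Glo 2.0 luminescence scaled between blank-well and DMSO-well means. The single-agent IC50 was taken from a logistic fit of the dose responses made with a non-linear mixed effects model, that logistic curve having two parameters.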

AZD5363 = compound: C1CN(CCC1(C(=O)N[C@@H](CCO)C2=CC=C(C=C2)Cl)N)C3=NC=NC4=C3C=CN4 [AZD5363]; conditions: max 10 µM
Summary of the method: as §1

AZD1775 = compound: C=CCn1c(=O)c2cnc(Nc3ccc(N4CCN(C)CC4)cc3)nc2n1-c1cccc(C(C)(C)O)n1 [AZD1775]; conditions: max 3 µM
Summary of the method: as §1

Trametinib = compound: CC(=O)Nc1cccc(-n2c(=O)n(C3CC3)c(=O)c3c(Nc4ccc(I)cc4F)n(C)c(=O)c(C)c32)c1 [Trametinib]; conditions: max 1 µM
Summary of the method: as §1

Paclitaxel = compound: CC(=O)O[C@H]1C(=O)[C@@]2(C)[C@H]([C@H](OC(=O)c3ccccc3)[C@]3(O)C[C@H](OC(=O)[C@H](O)[C@@H](NC(=O)c4ccccc4)c4ccccc4)C(C)=C1C3(C)C)[C@]1(OC(C)=O)CO[C@@H]1C[C@@H]2O [Paclitaxel]; conditions: max 3 µM
Summary of the method: as §1

Palbociclib = compound: CC(=O)c1c(C)c2cnc(Nc3ccc(N4CCNCC4)cn3)nc2n(C2CCCC2)c1=O [Palbociclib]; conditions: max 10 µM
Summary of the method: as §1

AZD1390 = compound: CC(C)n1c(=O)n(C)c2cnc3cc(F)c(-c4ccc(OCCCN5CCCCC5)nc4)cc3c21 [AZD1390]; conditions: max 0.3 µM
Summary of the method: as §1

Venetoclax = compound: CC1(C)CCC(CN2CCN(c3ccc(C(=O)NS(=O)(=O)c4ccc(NCC5CCOCC5)c([N+](=O)[O-])c4)c(Oc4cnc5[nH]ccc5c4)c3)CC2)=C(c2ccc(Cl)cc2)C1 [Venetoclax]; conditions: max 1 µM
Summary of the method: as §1

Dasatinib = compound: CC1=C(C(=CC=C1)Cl)NC(=O)C2=CN=C(S2)NC3=CC(=NC(=N3)C)N4CCN(CC4)CCO [Dasatinib]; conditions: max 2 µM
Summary of the method: as §1

SG3199 = compound: CC1=CN2[C@@H](C1)C=NC3=CC(=C(C=C3C2=O)OC)OCCCCCOC4=C(C=C5C(=C4)N=C[C@@H]6CC(=CN6C5=O)C)OC [SG3199]; conditions: max 0.001 µM
Summary of the method: as §1

AZD2811 = compound: CCN(CCO)CCCOc1ccc2c(Nc3cc(CC(=O)Nc4cccc(F)c4)[nH]n3)ncnc2c1 [AZD2811]; conditions: max 1 µM
Summary of the method: as §1

SN-38 = compound: CCc1c2c(nc3ccc(O)cc13)-c1cc3c(c(=O)n1C2)COC(=O)[C@]3(O)CC [SN-38]; conditions: max 0.3 µM
Summary of the method: as §1

AZD0156 = compound: CN(C)CCCOc1ccc(-c2ccc3ncc4c(c3c2)n(C2CCOCC2)c(=O)n4C)cn1 [AZD0156]; conditions: max 3 µM
Summary of the method: as §1

AZD4320 = compound: CN(CC[C@H](CSC1=CC=CC=C1)NC2=C(C=C(C=C2)S(=O)(=O)NC(=O)C3=CC=C(C=C3)N4CCC(CC4)[C@H](C5=CC=CC=C5C6=CC=C(C=C6)Cl)O)S(=O)(=O)C(F)(F)F)CCO [AZD4320]; conditions: max 1 µM
Summary of the method: as §1

Alisertib = compound: COc1cc(Nc2ncc3c(n2)-c2ccc(Cl)cc2C(c2c(F)cccc2OC)=NC3)ccc1C(=O)O [Alisertib]; conditions: max 10 µM
Summary of the method: as §1

Etoposide = compound: COc1cc([C@@H]2c3cc4c(cc3[C@@H](O[C@@H]3O[C@@H]5CO[C@@H](C)O[C@H]5[C@H](O)[C@H]3O)[C@H]3COC(=O)[C@H]23)OCO4)cc(OC)c1O [Etoposide]; conditions: max 10 µM
Summary of the method: as §1

Gefitinib = compound: COc1cc2ncnc(Nc3ccc(F)c(Cl)c3)c2cc1OCCCN1CCOCC1 [Gefitinib]; conditions: max 10 µM
Summary of the method: as §1

Prexasertib = compound: COc1cccc(OCCCN)c1-c1cc(Nc2cnc(C#N)cn2)n[nH]1 [Prexasertib]; conditions: max 1 µM
Summary of the method: as §1

Doxorubicin = compound: COc1cccc2c1C(=O)c1c(O)c3c(c(O)c1C2=O)C[C@@](O)(C(=O)CO)C[C@@H]3O[C@H]1C[C@H](N)[C@H](O)[C@H](C)O1 [Doxorubicin]; conditions: max 1 µM
Summary of the method: as §1

AZD5153 = compound: COc1nnc2ccc(N3CCC(c4ccc(OCCN5CCN(C)C(=O)[C@H]5C)cc4)CC3)nn12 [AZD5153]; conditions: max 1 µM
Summary of the method: as §1

Lapatinib = compound: CS(=O)(=O)CCNCc1ccc(-c2ccc3ncnc(Nc4ccc(OCc5cccc(F)c5)c(Cl)c4)c3c2)o1 [Lapatinib]; conditions: max 10 µM
Summary of the method: as §1

AZD8186 = compound: C[C@@H](Nc1cc(F)cc(F)c1)c1cc(C(=O)N(C)C)cc2c(=O)cc(N3CCOCC3)oc12 [AZD8186]; conditions: max 10 µM
Summary of the method: as §1

Crizotinib = compound: C[C@@H](Oc1cc(-c2cnn(C3CCNCC3)c2)cnc1N)c1c(Cl)ccc(F)c1Cl [Crizotinib]; conditions: max 10 µM
Summary of the method: as §1

Savolitinib = compound: C[C@@H](c1ccc2nccn2c1)n1nnc2ncc(-c3cnn(C)c3)nc21 [Savolitinib]; conditions: max 1 µM
Summary of the method: as §1

AZD6738 = compound: C[C@@H]1COCCN1C2=NC(=NC(=C2)C3(CC3)[S@](=N)(=O)C)C4=C5C=CNC5=NC=C4 [AZD6738]; conditions: max 10 µM
Summary of the method: as §1

AZD5991 = compound: Cc1c2c(nn1C)CSCc1cc(n(C)n1)CSc1cc(c3ccccc3c1)OCCCc1c(C(=O)O)n(C)c3c-2c(Cl)ccc13 [AZD5991]; conditions: max 1 µM
Summary of the method: as §1

AZD7648 = compound: Cc1cc2ncnn2cc1Nc1ncc2c(n1)n(C1CCOCC1)c(=O)n2C [AZD7648]; conditions: max 10 µM
Summary of the method: as §1

Taselisib = compound: Cc1nc(-c2cn3c(n2)-c2ccc(-c4cnn(C(C)(C)C(N)=O)c4)cc2OCC3)n(C(C)C)n1 [Taselisib]; conditions: max 10 µM
Summary of the method: as §1

Selumetinib = compound: Cn1cnc2c(F)c(Nc3ccc(Br)cc3Cl)c(C(=O)NOCCO)cc21 [Selumetinib]; conditions: max 10 µM
Summary of the method: as §1

SRA737 = compound: N#Cc1cnc(Nc2cc(NC[C@H]3CNCCO3)c(C(F)(F)F)cn2)cn1 [SRA737]; conditions: max 10 µM
Summary of the method: as §1

MK-2206 = compound: NC1(c2ccc(-c3nc4ccn5c(=O)[nH]nc5c4cc3-c3ccccc3)cc2)CCC1 [MK-2206]; conditions: max 10 µM
Summary of the method: as §1

Gemcitabine = compound: Nc1ccn([C@@H]2O[C@H](CO)[C@@H](O)C2(F)F)c(=O)n1 [Gemcitabine]; conditions: max 0.3 µM
Summary of the method: as §1

[1] = compound: O=C(Nc1ccc2[nH]nc(-c3ccncc3)c2c1)[C@@H]1CCN(CC(=O)N2CCN(c3ccc(-c4ncccn4)cc3)CC2)C1; conditions: max 5 µM
Summary of the method: as §1

Olaparib = compound: O=C(c1cc(Cc2n[nH]c(=O)c3ccccc23)ccc1F)N1CCN(C(=O)C2CC2)CC1 [Olaparib]; conditions: max 10 µM
Summary of the method: as §1

5-Fluorouracil = compound: O=c1[nH]cc(F)c(=O)[nH]1 [5-Fluorouracil]; conditions: max 20 µM
Summary of the method: as §1

With IST-MES1 (Mesothelioma) the “IC50, cell viability 72 h” value (Carboplatin) was > 10000 nM, the “IC50, cell viability 72 h” value (AZD5363) was > 10000 nM and the “IC50, cell viability 72 h” value (AZD1775) was > 3000 nM. For the same cell line, the “IC50, cell viability 72 h” value (Trametinib) was > 1000 nM, the “IC50, cell viability 72 h” value (Paclitaxel) was 504 nM and the “IC50, cell viability 72 h” value (Palbociclib) was > 10000 nM. For the same cell line, the “IC50, cell viability 72 h” value (AZD1390) was > 300 nM, the “IC50, cell viability 72 h” value (Venetoclax) was > 1000 nM and the “IC50, cell viability 72 h” value (Dasatinib) was 243 nM. For the same cell line, the “IC50, cell viability 72 h” value (SG3199) was > 1 nM, the “IC50, cell viability 72 h” value (AZD2811) was > 1000 nM and the “IC50, cell viability 72 h” value (SN-38) was 61.4 nM. The “IC50, cell viability 72 h” value (AZD0156) was > 3000 nM, the “IC50, cell viability 72 h” value (AZD4320) was > 1000 nM and the “IC50, cell viability 72 h” value (Alisertib) was > 10000 nM. For the same cell line, the “IC50, cell viability 72 h” value (Etoposide) was > 10000 nM, the “IC50, cell viability 72 h” value (Gefitinib) was > 10000 nM and the “IC50, cell viability 72 h” value (Prexasertib) was > 1000 nM. The “IC50, cell viability 72 h” value (Doxorubicin) was 430 nM, the “IC50, cell viability 72 h” value (AZD5153) was 246 nM and the “IC50, cell viability 72 h” value (Lapatinib) was > 10000 nM. For the same cell line, the “IC50, cell viability 72 h” value (AZD8186) was > 10000 nM, the “IC50, cell viability 72 h” value (Crizotinib) was > 10000 nM and the “IC50, cell viability 72 h” value (Savolitinib) was > 1000 nM. For the same cell line, the “IC50, cell viability 72 h” value (AZD6738) was > 10000 nM, the “IC50, cell viability 72 h” value (AZD5991) was > 1000 nM and the “IC50, cell viability 72 h” value (AZD7648) was > 10000 nM. For the same cell line, the “IC50, cell viability 72 h” value (Taselisib) was > 10000 nM, the “IC50, cell viability 72 h” value (Selumetinib) was > 10000 nM and the “IC50, cell viability 72 h” value (SRA737) was > 10000 nM. The “IC50, cell viability 72 h” value (MK-2206) was > 10000 nM, the “IC50, cell viability 72 h” value (Gemcitabine) was 181 nM and the “IC50, cell viability 72 h” value [1] was > 5000 nM. For the same cell line, the “IC50, cell viability 72 h” value (Olaparib) was > 10000 nM and the “IC50, cell viability 72 h” value (5-Fluorouracil) was > 20000 nM.
